Patent publication US8524665B2, “Use of secretin in treatments of disorders associated with the amygdala” (The McLean Hospital Corporation, priority 2003, dated 2013)

Columns and labels:
amygdala [1] = settings: healthy subjects; cited from earlier work
amygdala [2] = settings: depressed patients, versus baseline evaluation; cited from earlier work
clinical = settings: human, in vivo, iv, 0.4 ug/kg
Experimental: Upon entering the scanner, an […] was started in an antecubital vein and subjects were randomly assigned to receive either placebo (saline) or RG1068 (synthetic human secretin). Drug was administered at 0.4 μg/kg via the […] over 1 min. A 3-way stop-clock device with a heparinized line was used to collect blood samples immediately preceding the infusion of RG1068 or placebo and at variable points post infusion for drug pharmacokinetic analysis. Vital signs were monitored for at least 20 minutes after infusion. Prior to the infusion, subjects completed three affective challenge paradigms which had been explained to them before entering the scanner. Subjects completed the same paradigms one hour following infusion with either placebo or RG1068 for pre/post comparison (FIG. 1).
Blood samples were taken over the first 60 minutes post dosing, and samples from subjects receiving RG1068 were used to quantify secretin blood levels. […] Both the Cmax and the elimination rate are consistent with values observed after similar secretin infusions in adults (Christ et al., 1988). Whole brain T2 measures were obtained to verify that no global metabolic effect occurred with the administration of secretin.

**Q.** With `C[C@H](N)Cc1ccccc1` [dextroamphetamine] as the molecule, how does the “amygdalar responsivity to facial affect” value (amygdala [1]) read?
**A.** increased amygdalar responsivity

**Q.** With `COc1ccc(C(CN(C)C)C2(O)CCCCC2)cc1` (stereo not shown) [venlafaxine] as the molecule, how does the “amygdalar activation to positive stimuli after treatment” value (amygdala [2]) read?
**A.** significant increase in activation

**Q.** For `CC(C)C[C@H](NC(=O)CNC(=O)[C@H](CCC(N)=O)NC(=O)[C@H](CC(C)C)NC(=O)[C@H](CC(C)C)NC(=O)[C@H](CCCNC(=N)N)NC(=O)[C@H](CCC(N)=O)NC(=O)[C@H](CC(C)C)NC(=O)[C@H](CCCNC(=N)N)NC(=O)[C@H](C)NC(=O)CNC(=O)[C@H](CCC(=O)O)NC(=O)[C@H](CCCNC(=N)N)NC(=O)[C@H](CC(C)C)NC(=O)[C@H](CCCNC(=N)N)NC(=O)[C@H](CO)NC(=O)[C@H](CC(C)C)NC(=O)[C@H](CCC(=O)O)NC(=O)[C@H](CO)NC(=O)[C@@H](NC(=O)[C@H](Cc1ccccc1)NC(=O)[C@@H](NC(=O)CNC(=O)[C@H](CC(=O)O)NC(=O)[C@H](CO)NC(=O)[C@@H](N)Cc1c[nH]cn1)[C@@H](C)O)[C@@H](C)O)C(=O)N[C@H](C(N)=O)C(C)C` [Secretin, secretin], which Cmax (clinical) is on record?
**A.** 5.1 ng/mL

**Q.** And the half-life (clinical)?
**A.** 3.7 min
